Assay results: article PMC7992430 (Journal of medicinal chemistry, 2020)

What was measured:
[1] = tested on: G30 neurospheres (glioma stem-like cells, luciferase-transduced); experiment: G30 cytotoxicity assay; assay type: cell-based; details: read-out: IC50 in G30 GSCs, 72 h treatment, CellTiter-Glo
[2] = tested on: G9 neurospheres (glioma stem-like cells); experiment: G9 cytotoxicity assay; assay type: cell-based

Row | Compound | IC50 [1] [µM] | IC50 ([2]; read-out: IC50 against G9 cells, 80 h treatment, CellTiter-Glo) [µM] | IC50 against G9 cells ([2]; 80 h treatment, CellTiter-Glo)
1 | N.N.[Cl][Pt][Cl] [cisplatin] | 2 | 4 | 
2 | CCCCNC(=O)[O][Pt]([NH2])([NH2])([Cl])([Cl])[O]C(=O)CCC(=O)O [prodrug 4, cis,cis,trans-[Pt(NH3)2Cl2(O2CCH2CH2COOH)(n-butyl Carba-mate)]] |  |  | not active
